Legend:
A549 = assay: Cytotoxicity against human A549 cells assessed as concentration required to inhibition cell proliferation after 120 hrs by Incucyte phase contrast microscopic analysis; format: functional
K562 [1] = assay: Cytotoxicity against human K562 cells assessed as concentration required to inhibit cell proliferation after 120 hrs by Incucyte phase contrast microscopic analysis; format: functional
[2] = (§1) Inhibition of TNFalpha-induced NFkappaB activation in human K562 cells incubated for 2 hrs prior to TNFalpha induction measured after 6 hrs by luciferase reporter gene assay; format: cell-based
K562 [3] = assay: as §1; format: cell-based
PBMC = assay: Cytotoxicity against human PBMC cells assessed as cell viability after 24 hrs by trypan blue exclusion assay; format: cell-based
K562 [4] = assay: Cytotoxicity against human K562 cells assessed as cell viability by trypan blue exclusion assay; format: functional, cell-based; settings: TDE = time-dependent effect
K562 [5] = assay: Cytotoxicity against human K562 cells assessed as cell viability after 8 to 72 hrs by trypan blue exclusion assay; format: functional, cell-based
K562 [6] = assay: Cytotoxicity against human K562 cells assessed as cell viability after 72 hrs by trypan blue exclusion assay; format: functional, cell-based; settings: K562, 72 h
K562 [7] = assay: Cytotoxicity against human K562 cells assessed as cell viability after 48 hrs by trypan blue exclusion assay; format: functional, cell-based; settings: K562, 48 h
K562 [8] = assay: Cytotoxicity against human K562 cells assessed as cell viability after 24 hrs by trypan blue exclusion assay; format: functional, cell-based; settings: K562, 24 h
K562 [9] = assay: Cytotoxicity against human K562 cells assessed as cell viability after 8 hrs by trypan blue exclusion assay; format: functional, cell-based; settings: K562, 8 h
[10] = Selectivity ratio of IC50 for human PBMC cells to IC50 for human K562 cells; format: cell-based; settings: PBMC cells versus K562 cells, read-out: Ratio IC50

Compound | INH (A549) | INH (K562 [1]) | IC50 [2] [nM] | inhibition (K562 [3]) | IC50 (PBMC) [nM] | Activity (K562 [4]) | Activity (K562 [5]) | IC50 (K562 [6]) [nM] | IC50 (K562 [7]) [nM] | IC50 (K562 [8]) [nM] | IC50 (K562 [9]) [nM] | selectivity ratio [10]
CC1=C[C@]2(C)C(=C(C)[C@@H]3[C@@H]4C[C@H](C)C[C@H](C)[C@H]4[C@H]4Oc5ccc(cc5)C[C@]5(O)NC(=O)/C(=C(/O)[C@H]2[C@@H]43)[C@@H]5O)[C@@H]1C | >=0.5 uM | >=0.5 uM | 352 | Dose-dependent effect | 12800 | tde | Dose-dependent effect | 210 | 250 | 323 | 917 | 40
CC1=C[C@]2(C)C(=C(C)[C@@H]3[C@@H]4C[C@H](C)C[C@H](C)[C@H]4[C@H]4Oc5ccc(cc5)C[C@@]5(O)C=C(C(=O)N5)C(=O)[C@H]2[C@@H]43)[C@@H]1C | – | – | 3040 | Dose-dependent effect | – | tde | Dose-dependent effect | 1200 | 1280 | 2860 | 3470 | –

From ChEMBL document CHEMBL2321818, “Embellicines A and B: absolute configuration and NF-κB transcriptional inhibitory activity” (J Med Chem, 2013)
